Assay results as given in ChEMBL document CHEMBL5653615 (J Biol Chem, 2013).
Active and inactive are the calls of the source. The rule behind the calls is not given here.

Key:
[1] = target: Insulin receptor (Homo sapiens) (UniProt P06213); test: Inhibition of wild-type human Insulin receptor autophosphorylation in CHO-K1 cell lysate at 10 uM for 30 mins on ice followed by insulin stimulation for 10 mins by Western blot analysis; format: subcellular; details: time 40.0 min
[2] = target: CDK6/cyclin D3 (Homo sapiens) (UniProt P30281+Q00534); test: Inhibition of human CDK6/cyclin D3 at 18.6 nM by HotSpot assay relative to control; format: protein-complex assay
[3] = target: Casein kinase I isoform delta (Homo sapiens) (UniProt P48730); test: Inhibition of human CK1d at 18.6 nM by HotSpot assay relative to control
Sequence of Casein kinase I isoform delta (Homo sapiens) (P48730 whole entry, looked up, canonical isoform): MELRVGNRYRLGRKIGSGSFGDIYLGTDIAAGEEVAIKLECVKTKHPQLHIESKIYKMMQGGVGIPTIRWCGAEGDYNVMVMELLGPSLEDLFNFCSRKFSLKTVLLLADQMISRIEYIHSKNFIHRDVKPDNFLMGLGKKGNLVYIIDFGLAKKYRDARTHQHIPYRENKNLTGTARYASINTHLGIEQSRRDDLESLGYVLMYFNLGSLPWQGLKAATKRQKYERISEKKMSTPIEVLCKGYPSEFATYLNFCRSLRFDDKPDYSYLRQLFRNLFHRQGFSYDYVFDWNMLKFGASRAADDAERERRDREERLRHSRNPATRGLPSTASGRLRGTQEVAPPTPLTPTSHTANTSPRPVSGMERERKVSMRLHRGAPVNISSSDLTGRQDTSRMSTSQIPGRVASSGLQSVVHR

[4] = target: T1, Serine/threonine-protein kinase 17A (Homo sapiens) (UniProt Q9UEE5); test: Inhibition of human DRAK1 at 18.6 nM by HotSpot assay relative to control
T1 sequence (whole entry): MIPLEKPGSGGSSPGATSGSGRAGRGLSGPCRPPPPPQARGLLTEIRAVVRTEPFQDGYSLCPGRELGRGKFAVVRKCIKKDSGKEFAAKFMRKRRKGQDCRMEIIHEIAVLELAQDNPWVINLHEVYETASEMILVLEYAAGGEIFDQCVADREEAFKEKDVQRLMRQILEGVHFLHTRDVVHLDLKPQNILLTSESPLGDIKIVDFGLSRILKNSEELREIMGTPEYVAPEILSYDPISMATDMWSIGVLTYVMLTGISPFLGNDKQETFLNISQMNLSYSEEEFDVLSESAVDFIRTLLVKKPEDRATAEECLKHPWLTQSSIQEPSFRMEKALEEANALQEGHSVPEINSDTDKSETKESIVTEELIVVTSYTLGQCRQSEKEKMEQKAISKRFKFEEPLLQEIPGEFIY

[5] = target: T2, Dual specificity tyrosine-phosphorylation-regulated kinase 4 (Homo sapiens) (UniProt Q9NR20); test: Inhibition of human DYRK4 at 18.6 nM by HotSpot assay relative to control
T2 sequence (whole entry): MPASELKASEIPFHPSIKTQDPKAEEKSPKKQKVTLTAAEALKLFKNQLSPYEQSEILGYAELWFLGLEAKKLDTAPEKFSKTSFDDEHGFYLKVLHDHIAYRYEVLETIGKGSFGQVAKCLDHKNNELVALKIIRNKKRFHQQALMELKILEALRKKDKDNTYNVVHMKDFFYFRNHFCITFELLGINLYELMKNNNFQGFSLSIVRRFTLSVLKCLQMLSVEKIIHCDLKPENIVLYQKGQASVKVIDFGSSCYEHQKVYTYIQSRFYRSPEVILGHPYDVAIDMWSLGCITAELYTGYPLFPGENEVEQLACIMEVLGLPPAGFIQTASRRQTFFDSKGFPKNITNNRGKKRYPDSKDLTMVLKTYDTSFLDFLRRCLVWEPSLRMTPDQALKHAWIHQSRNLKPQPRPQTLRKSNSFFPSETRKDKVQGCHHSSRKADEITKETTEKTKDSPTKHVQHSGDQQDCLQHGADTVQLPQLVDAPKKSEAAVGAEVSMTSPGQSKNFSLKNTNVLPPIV

[6] = target: T3, Inhibitor of nuclear factor kappa-B kinase subunit beta (Homo sapiens) (UniProt O14920); test: Inhibition of human IKKb at 18.6 nM by HotSpot assay relative to control
T3 sequence (whole entry): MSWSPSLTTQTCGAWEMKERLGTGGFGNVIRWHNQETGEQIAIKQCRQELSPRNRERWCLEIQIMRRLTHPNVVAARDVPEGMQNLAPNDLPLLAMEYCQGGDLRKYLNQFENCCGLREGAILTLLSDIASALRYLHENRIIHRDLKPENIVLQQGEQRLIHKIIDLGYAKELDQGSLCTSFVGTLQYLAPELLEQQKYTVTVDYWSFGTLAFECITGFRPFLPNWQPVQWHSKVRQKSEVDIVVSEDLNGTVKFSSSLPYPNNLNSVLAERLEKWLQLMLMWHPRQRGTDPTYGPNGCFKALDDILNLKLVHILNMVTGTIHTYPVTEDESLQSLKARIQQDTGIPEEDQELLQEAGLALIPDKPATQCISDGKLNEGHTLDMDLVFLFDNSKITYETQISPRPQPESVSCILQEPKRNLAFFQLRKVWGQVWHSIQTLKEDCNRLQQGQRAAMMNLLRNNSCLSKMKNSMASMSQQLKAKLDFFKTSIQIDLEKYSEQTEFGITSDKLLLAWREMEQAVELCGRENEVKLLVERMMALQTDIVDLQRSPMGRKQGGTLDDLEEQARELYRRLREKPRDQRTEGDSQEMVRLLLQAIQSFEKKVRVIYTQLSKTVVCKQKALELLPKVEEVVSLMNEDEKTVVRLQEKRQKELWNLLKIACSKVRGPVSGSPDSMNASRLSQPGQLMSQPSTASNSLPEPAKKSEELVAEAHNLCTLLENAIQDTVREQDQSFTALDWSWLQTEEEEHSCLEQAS

[7] = target: T4, Lymphokine-activated killer T-cell-originated protein kinase (Homo sapiens) (UniProt Q96KB5); test: Inhibition of human TOPK at 18.6 nM by HotSpot assay relative to control
T4 sequence (whole entry): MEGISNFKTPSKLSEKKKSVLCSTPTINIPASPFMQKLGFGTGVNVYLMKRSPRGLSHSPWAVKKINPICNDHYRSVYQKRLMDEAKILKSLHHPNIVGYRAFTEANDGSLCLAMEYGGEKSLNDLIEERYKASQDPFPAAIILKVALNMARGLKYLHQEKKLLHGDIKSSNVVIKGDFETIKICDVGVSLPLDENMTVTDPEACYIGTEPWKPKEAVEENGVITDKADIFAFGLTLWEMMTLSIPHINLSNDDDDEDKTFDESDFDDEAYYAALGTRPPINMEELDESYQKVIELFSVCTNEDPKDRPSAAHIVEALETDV

[8] = target: BDNF/NT-3 growth factors receptor (Homo sapiens) (UniProt Q16620); test: Inhibition of human TRKB at 18.6 nM by HotSpot assay relative to control
Sequence of BDNF/NT-3 growth factors receptor (Homo sapiens) (Q16620 32-822 limits assumed): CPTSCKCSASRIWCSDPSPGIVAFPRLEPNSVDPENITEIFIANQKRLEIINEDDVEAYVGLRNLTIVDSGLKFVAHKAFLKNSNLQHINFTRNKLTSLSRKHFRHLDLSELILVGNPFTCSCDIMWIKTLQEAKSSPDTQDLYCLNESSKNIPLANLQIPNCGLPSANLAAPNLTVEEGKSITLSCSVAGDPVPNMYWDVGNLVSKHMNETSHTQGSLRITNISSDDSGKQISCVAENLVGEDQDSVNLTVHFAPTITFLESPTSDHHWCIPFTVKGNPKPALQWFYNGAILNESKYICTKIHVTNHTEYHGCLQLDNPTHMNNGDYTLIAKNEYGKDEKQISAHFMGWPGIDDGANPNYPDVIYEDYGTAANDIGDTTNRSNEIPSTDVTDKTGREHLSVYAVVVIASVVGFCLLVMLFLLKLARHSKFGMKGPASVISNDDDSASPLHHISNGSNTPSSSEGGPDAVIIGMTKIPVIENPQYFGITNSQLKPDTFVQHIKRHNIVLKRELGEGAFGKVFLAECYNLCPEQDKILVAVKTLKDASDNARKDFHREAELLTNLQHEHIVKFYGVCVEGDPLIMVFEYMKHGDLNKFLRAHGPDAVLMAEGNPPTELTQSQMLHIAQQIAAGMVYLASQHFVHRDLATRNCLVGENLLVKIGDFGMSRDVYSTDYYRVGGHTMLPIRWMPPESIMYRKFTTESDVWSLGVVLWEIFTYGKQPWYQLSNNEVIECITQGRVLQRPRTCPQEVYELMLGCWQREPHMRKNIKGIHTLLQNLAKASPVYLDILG

[9] = target: Serine/threonine-protein kinase PLK2 (Homo sapiens) (UniProt Q9NYY3); test: Inhibition of human PLK2 at 1.82 nM by HotSpot assay relative to control
Sequence of Serine/threonine-protein kinase PLK2 (Homo sapiens) (Q9NYY3 whole entry, looked up): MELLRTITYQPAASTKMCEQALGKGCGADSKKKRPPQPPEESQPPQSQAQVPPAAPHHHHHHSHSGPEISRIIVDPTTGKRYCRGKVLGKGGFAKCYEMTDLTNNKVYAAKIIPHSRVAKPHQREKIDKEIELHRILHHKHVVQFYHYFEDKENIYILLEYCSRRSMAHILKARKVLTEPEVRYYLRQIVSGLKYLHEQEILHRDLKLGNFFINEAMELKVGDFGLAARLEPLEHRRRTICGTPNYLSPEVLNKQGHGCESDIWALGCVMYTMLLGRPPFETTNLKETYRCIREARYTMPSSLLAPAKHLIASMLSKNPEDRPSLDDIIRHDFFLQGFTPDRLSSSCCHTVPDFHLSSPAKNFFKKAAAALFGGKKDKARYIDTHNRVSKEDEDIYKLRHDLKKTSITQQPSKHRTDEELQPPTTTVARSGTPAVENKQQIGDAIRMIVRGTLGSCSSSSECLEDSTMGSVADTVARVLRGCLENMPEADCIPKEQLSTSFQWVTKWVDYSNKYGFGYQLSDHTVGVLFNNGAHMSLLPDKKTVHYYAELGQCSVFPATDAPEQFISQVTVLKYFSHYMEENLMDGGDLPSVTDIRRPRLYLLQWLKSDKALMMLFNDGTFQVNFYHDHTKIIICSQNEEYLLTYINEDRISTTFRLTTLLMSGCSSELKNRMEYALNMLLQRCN

Sequence of Insulin receptor (Homo sapiens) (P06213 28-758 limits assumed): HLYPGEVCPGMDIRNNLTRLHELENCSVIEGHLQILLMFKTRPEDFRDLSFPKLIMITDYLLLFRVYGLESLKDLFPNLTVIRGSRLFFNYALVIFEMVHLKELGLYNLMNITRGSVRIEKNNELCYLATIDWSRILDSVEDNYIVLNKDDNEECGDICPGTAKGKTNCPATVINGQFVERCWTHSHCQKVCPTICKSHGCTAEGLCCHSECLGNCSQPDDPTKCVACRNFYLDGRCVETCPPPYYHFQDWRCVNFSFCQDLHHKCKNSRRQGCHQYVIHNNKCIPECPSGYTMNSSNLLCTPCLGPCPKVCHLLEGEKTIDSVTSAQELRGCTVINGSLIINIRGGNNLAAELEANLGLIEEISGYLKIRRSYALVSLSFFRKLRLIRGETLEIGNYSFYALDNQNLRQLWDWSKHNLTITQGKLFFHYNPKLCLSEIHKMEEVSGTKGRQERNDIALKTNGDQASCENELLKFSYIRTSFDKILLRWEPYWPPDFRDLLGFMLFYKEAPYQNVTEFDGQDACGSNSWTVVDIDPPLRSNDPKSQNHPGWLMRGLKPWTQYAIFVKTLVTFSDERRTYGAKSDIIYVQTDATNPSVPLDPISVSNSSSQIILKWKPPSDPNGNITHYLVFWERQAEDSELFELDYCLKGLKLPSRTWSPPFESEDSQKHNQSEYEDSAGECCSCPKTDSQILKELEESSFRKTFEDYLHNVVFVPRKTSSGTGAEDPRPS
Sequence of Insulin receptor (Homo sapiens) (P06213 763-1382 limits assumed): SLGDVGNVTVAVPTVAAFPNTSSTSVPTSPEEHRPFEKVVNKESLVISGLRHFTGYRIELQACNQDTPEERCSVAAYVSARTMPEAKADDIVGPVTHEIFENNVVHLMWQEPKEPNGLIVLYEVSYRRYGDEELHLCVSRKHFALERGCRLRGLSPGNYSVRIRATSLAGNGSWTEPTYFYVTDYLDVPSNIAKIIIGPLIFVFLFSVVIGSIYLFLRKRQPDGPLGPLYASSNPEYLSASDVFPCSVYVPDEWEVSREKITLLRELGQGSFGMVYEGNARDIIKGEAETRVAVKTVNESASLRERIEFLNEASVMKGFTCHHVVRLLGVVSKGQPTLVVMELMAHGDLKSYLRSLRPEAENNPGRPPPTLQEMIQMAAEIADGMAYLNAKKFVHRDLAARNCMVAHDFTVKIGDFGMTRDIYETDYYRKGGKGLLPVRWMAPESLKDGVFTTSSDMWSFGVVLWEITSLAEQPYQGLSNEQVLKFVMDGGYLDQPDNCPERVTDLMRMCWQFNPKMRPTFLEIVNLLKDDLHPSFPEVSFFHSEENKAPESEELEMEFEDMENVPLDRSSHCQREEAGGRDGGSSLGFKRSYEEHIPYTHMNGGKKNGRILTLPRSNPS

Oc1n[nH]c2nnc(-c3c(-c4ccccc4)nn4ccccc34)cc12
inhibition [1]: Active

C[C@]1(O)C[C@@H](c2nc(-c3ccc4ccc(-c5ccccc5)nc4c3)c3c(N)nccn32)C1
inhibition [2]: -9.8%
inhibition [3]: -2.47%
inhibition [4]: 0.05%
inhibition [5]: -1.52%
inhibition [6]: -2.87%
inhibition [7]: 1.57%
inhibition [8]: -7.44%

C[C@@]1(C(=O)Nc2ccc(F)nc2)CCCN1c1nc(Nc2cc(C3CC3)n[nH]2)c2cccn2n1
inhibition [9]: 1.2%
